Measurements from ChEMBL document CHEMBL1201862, “PubChem BioAssay data set” (2004).
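Growth conditions: 96-well plates. Treatment: test compound, 48 hours, 5 concentrations. Analysis: linear interpolation between bracketing concentrations; unreached endpoints set to highest concentration. Here, GI50 denotes the concentration required for 50% inhibition of growth.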 Active and inactive are the calls of the source. No stated cut-off is given here; in the data, active = GI50 up to about 1.1 µM and inactive = higher.

What was measured:
Assay in all cases: inhibition of tumour cell growth, NCI panel, 48 h
NCI/ADR-RES = tested on: NCI/ADR-RES
HCT-116 = tested on: HCT-116
COLO 205 = tested on: COLO 205
SK-MEL-28 = tested on: SK-MEL-28
CAKI-1 = tested on: CAKI-1
SK-MEL-5 = tested on: SK-MEL-5
MOLT-4 = tested on: MOLT-4
K562 = tested on: K562
A549 = tested on: A549
M14 = tested on: M14
MDA-N = tested on: MDA-N
RPMI-8226 = tested on: RPMI-8226
786-0 = tested on: 786-0
SNB-19 = tested on: SNB-19
MDA-MB-435 = tested on: MDA-MB-435
SF-268 = tested on: SF-268
NCI-H226 = tested on: NCI-H226
SF-539 = tested on: SF-539
OVCAR-5 = tested on: OVCAR-5
EKVX = tested on: EKVX
OVCAR-4 = tested on: OVCAR-4
NCI-H522 = tested on: NCI-H522
OVCAR-8 = tested on: OVCAR-8
UO-31 = tested on: UO-31
SF-295 = tested on: SF-295
UACC-257 = tested on: UACC-257
CCRF-CEM = tested on: CCRF-CEM
PC-3 = tested on: PC-3
TK-10 = tested on: TK-10
NCI-H460 = tested on: NCI-H460
DU-145 = tested on: DU-145
OVCAR-3 = tested on: OVCAR-3
HL-60 = tested on: HL-60
SNB-75 = tested on: SNB-75
SK-OV-3 = tested on: SK-OV-3
HCC 2998 = tested on: HCC 2998
KM12 = tested on: KM12
SN12C = tested on: SN12C
LOX IMVI = tested on: LOX IMVI
IGROV-1 = tested on: IGROV-1
A498 = tested on: A498
HOP-62 = tested on: HOP-62
HT-29 = tested on: HT-29
SK-MEL-2 = tested on: SK-MEL-2
UACC-62 = tested on: UACC-62
SR = tested on: SR
ACHN = tested on: ACHN
U-251 = tested on: U-251
Malme-3M = tested on: Malme-3M
HOP-92 = tested on: HOP-92
T47D = tested on: T47D
SW-620 = tested on: SW-620
NCI-H23 = tested on: NCI-H23
Hs-578T = tested on: Hs-578T
RXF 393 = tested on: RXF 393
BT-549 = tested on: BT-549
MDA-MB-231 = tested on: MDA-MB-231
MCF7 = tested on: MCF7
HCT-15 = tested on: HCT-15

For `COC(=O)CN1Cc2cc(C)cc(c2O)CN(CC(=O)OC)Cc2cc(C)cc(c2O)CN(CC(=O)OC)Cc2cc(C)cc(c2O)CN(CC(=O)OC)Cc2cc(C)cc(c2O)C1`, the GI50 (NCI/ADR-RES) was 19.5 µM (inactive), the GI50 (HCT-116) was 11.1 µM (inactive) and the GI50 (COLO 205) was 13.7 µM (inactive). The GI50 (SK-MEL-28) was 21.9 µM (inactive), the GI50 (CAKI-1) was 24.2 µM (inactive) and the GI50 (SK-MEL-5) was 19.9 µM (inactive). For the same compound, the GI50 (MOLT-4) was 9.62 µM (inactive), the GI50 (K562) was 21.8 µM (inactive) and the GI50 (A549) was 18.4 µM (inactive). The GI50 (M14) was 4.92 µM (inactive), the GI50 (MDA-N) was > 50 µM (inactive) and the GI50 (RPMI-8226) was 39 µM (inactive). The GI50 (786-0) was 10.2 µM (inactive), the GI50 (SNB-19) was 16 µM (inactive) and the GI50 (MDA-MB-435) was 26.9 µM (inactive). For the same compound, the GI50 (SF-268) was 9.89 µM (inactive), the GI50 (NCI-H226) was 8.04 µM (inactive) and the GI50 (SF-539) was 12.8 µM (inactive). The GI50 (OVCAR-5) was 9.46 µM (inactive), the GI50 (EKVX) was 9.06 µM (inactive) and the GI50 (OVCAR-4) was 12.2 µM (inactive). The GI50 (NCI-H522) was > 100 µM (inactive), the GI50 (OVCAR-8) was 11 µM (inactive) and the GI50 (UO-31) was 8.89 µM (inactive). The GI50 (SF-295) was 17.5 µM (inactive), the GI50 (UACC-257) was 16.8 µM (inactive) and the GI50 (CCRF-CEM) was 2.03 µM (inactive). The GI50 (PC-3) was 18.5 µM (inactive), the GI50 (TK-10) was 15.4 µM (inactive) and the GI50 (NCI-H460) was 6.85 µM (inactive). The GI50 (DU-145) was 8.17 µM (inactive), the GI50 (OVCAR-3) was 7.05 µM (inactive) and the GI50 (HL-60) was 3.03 µM (inactive). The GI50 (SNB-75) was 12.4 µM (inactive), the GI50 (SK-OV-3) was 11.9 µM (inactive) and the GI50 (HCC 2998) was 13.6 µM (inactive). The GI50 (KM12) was 32.6 µM (inactive), the GI50 (SN12C) was 21.5 µM (inactive) and the GI50 (LOX IMVI) was 7.33 µM (inactive). The GI50 (IGROV-1) was 19.7 µM (inactive), the GI50 (A498) was 18.1 µM (inactive) and the GI50 (HOP-62) was 9.51 µM (inactive). The GI50 (HT-29) was 8.79 µM (inactive), the GI50 (SK-MEL-2) was 13.6 µM (inactive) and the GI50 (UACC-62) was 39.6 µM (inactive). For the same compound, the GI50 (SR) was 6.04 µM (inactive), the GI50 (ACHN) was 11.5 µM (inactive) and the GI50 (U-251) was 14 µM (inactive). For the same compound, the GI50 (Malme-3M) was 12.2 µM (inactive), the GI50 (HOP-92) was > 50 µM (inactive) and the GI50 (T47D) was 13.2 µM (inactive). The GI50 (SW-620) was 14.3 µM (inactive), the GI50 (NCI-H23) was 30.5 µM (inactive) and the GI50 (Hs-578T) was 38.4 µM (inactive). For the same compound, the GI50 (RXF 393) was 4.19 µM (inactive), the GI50 (BT-549) was 24.8 µM (inactive) and the GI50 (MDA-MB-231) was 26.7 µM (inactive). For the same compound, the GI50 (MCF7) was 14.1 µM (inactive) and the GI50 (HCT-15) was 14.6 µM.
`CC(=O)OCC1OC(n2c(N)c(C#N)c(-c3ccccc3)c(C#N)c2=S)C(OC(C)=O)C(OC(C)=O)C1OC(C)=O` (stereo not drawn) was tested, and the GI50 (NCI/ADR-RES) was > 100 µM (inactive), the GI50 (HCT-116) was > 100 µM (inactive) and the GI50 (COLO 205) was > 100 µM (inactive). The GI50 (SK-MEL-28) was > 100 µM (inactive), the GI50 (CAKI-1) was 44.3 µM (inactive) and the GI50 (SK-MEL-5) was > 100 µM (inactive). The GI50 (MOLT-4) was > 100 µM (inactive), the GI50 (K562) was > 100 µM (inactive) and the GI50 (A549) was > 100 µM (inactive). For the same compound, the GI50 (M14) was > 100 µM (inactive), the GI50 (MDA-N) was > 100 µM (inactive) and the GI50 (RPMI-8226) was > 100 µM (inactive). The GI50 (786-0) was 21.8 µM (inactive), the GI50 (SNB-19) was 19 µM (inactive) and the GI50 (MDA-MB-435) was > 100 µM (inactive). The GI50 (SF-268) was 7.8 µM (inactive), the GI50 (NCI-H226) was > 61.4 µM (inactive) and the GI50 (SF-539) was > 46.9 µM (inactive). The GI50 (OVCAR-5) was > 100 µM (inactive), the GI50 (EKVX) was > 74.3 µM (inactive) and the GI50 (OVCAR-4) was > 49.8 µM (inactive). For the same compound, the GI50 (NCI-H522) was 13 µM (inactive), the GI50 (OVCAR-8) was 34.9 µM (inactive) and the GI50 (UO-31) was 45 µM (inactive). For the same compound, the GI50 (SF-295) was 30.8 µM (inactive), the GI50 (UACC-257) was > 100 µM (inactive) and the GI50 (CCRF-CEM) was > 100 µM (inactive). For the same compound, the GI50 (PC-3) was > 100 µM (inactive), the GI50 (TK-10) was > 100 µM (inactive) and the GI50 (NCI-H460) was > 79.8 µM (inactive). The GI50 (DU-145) was > 100 µM (inactive), the GI50 (OVCAR-3) was > 100 µM (inactive) and the GI50 (HL-60) was > 100 µM (inactive). For the same compound, the GI50 (SNB-75) was 7.33 µM (inactive), the GI50 (SK-OV-3) was 54.2 µM (inactive) and the GI50 (HCC 2998) was > 100 µM (inactive). The GI50 (KM12) was > 100 µM (inactive), the GI50 (SN12C) was > 100 µM (inactive) and the GI50 (LOX IMVI) was > 100 µM (inactive). The GI50 (IGROV-1) was > 100 µM (inactive), the GI50 (A498) was > 64.4 µM (inactive) and the GI50 (HOP-62) was 11.6 µM (inactive). For the same compound, the GI50 (HT-29) was > 100 µM (inactive), the GI50 (SK-MEL-2) was > 58.9 µM (inactive) and the GI50 (UACC-62) was > 61.8 µM (inactive). For the same compound, the GI50 (SR) was > 100 µM (inactive), the GI50 (ACHN) was > 85.7 µM (inactive) and the GI50 (U-251) was 11.2 µM (inactive). For the same compound, the GI50 (Malme-3M) was > 100 µM (inactive), the GI50 (HOP-92) was 11.8 µM (inactive) and the GI50 (T47D) was > 81.1 µM (inactive). For the same compound, the GI50 (SW-620) was > 100 µM (inactive), the GI50 (NCI-H23) was > 65.8 µM (inactive) and the GI50 (Hs-578T) was 14.6 µM (inactive). For the same compound, the GI50 (RXF 393) was 23.2 µM (inactive), the GI50 (BT-549) was 42.6 µM (inactive) and the GI50 (MDA-MB-231) was 34 µM (inactive). For the same compound, the GI50 (MCF7) was > 100 µM (inactive) and the GI50 (HCT-15) was > 100 µM.
